Measurements: patent publication US20220089612A1, “HETEROCYCLIC COMPOUNDS AS PRMT5 INHIBITORS” (ANGEX PHARMACEUTICAL, INC., priority 2017, published 2022)

The compounds below were run against PRMT5:MEP50 (Homo sapiens, UniProt O14744) (assay: PRMT5:MEP50 Flashplate Assay). Settings: PRMT5:MEP50 inhibitory activity; 3H-SAM, 2 h at room temperature, top concentration 10 μM.
Format: biochemical
Method: PRMT5:MEP50 Flashplate Assay:
Ten-point curves of inhibitor compounds were made using serial threefold dilutions in DMSO (the final top concentration of compound was 10 μM, 1% DMSO). Reaction mixture consisting of 50 mM Tris-HCl (pH 8.5), 0.002% Tween 20, 0.005% BSA (Bovine Serum Albumin), 1 mM TCEP, and 1% DMSO. Substrates are freshly prepared in reaction buffer. PRMT5:MEP50 was then added into substrate solution and mixed gently. Inhibitor compound was then added and incubated for 30 min at room temperature. ^3H-SAM was added to initiate the reaction. Reactions were incubated for 2 h at room temperature and quenched with 0.5 mM SAM (S-adenosyl-L-Methionine) in assay buffer. An aliquot of the reaction mix was transferred to a streptavidin-coated 384-well FlashPlate (PerkinElmer). After an incubation time of 1 h, the plate was washed and then read on a TopCount (PerkinElmer) to measure the amount of tritium incorporated into the peptide substrate. IC50 was calculated using conventional curve-fitting method.

Sequence of PRMT5:MEP50 (O14744 whole entry, species assumed): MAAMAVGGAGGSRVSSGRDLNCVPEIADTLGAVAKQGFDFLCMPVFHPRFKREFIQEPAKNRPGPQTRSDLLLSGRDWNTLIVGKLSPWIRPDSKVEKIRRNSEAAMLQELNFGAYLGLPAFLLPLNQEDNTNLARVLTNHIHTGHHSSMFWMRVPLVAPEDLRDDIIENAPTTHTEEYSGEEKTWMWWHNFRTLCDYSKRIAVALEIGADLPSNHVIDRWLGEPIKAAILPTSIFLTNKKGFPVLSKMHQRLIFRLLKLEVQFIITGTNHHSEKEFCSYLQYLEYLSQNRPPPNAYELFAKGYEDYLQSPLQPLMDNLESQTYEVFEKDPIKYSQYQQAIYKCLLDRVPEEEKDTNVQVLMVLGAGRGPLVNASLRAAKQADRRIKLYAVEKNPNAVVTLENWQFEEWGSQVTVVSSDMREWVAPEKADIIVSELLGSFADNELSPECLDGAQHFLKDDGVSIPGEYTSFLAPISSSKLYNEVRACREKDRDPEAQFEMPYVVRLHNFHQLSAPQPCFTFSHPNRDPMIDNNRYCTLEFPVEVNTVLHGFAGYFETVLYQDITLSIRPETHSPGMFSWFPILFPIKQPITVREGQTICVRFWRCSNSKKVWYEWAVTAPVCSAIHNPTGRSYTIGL
Sequence of PRMT5:MEP50 (Q9BQA1 whole entry partner, species assumed): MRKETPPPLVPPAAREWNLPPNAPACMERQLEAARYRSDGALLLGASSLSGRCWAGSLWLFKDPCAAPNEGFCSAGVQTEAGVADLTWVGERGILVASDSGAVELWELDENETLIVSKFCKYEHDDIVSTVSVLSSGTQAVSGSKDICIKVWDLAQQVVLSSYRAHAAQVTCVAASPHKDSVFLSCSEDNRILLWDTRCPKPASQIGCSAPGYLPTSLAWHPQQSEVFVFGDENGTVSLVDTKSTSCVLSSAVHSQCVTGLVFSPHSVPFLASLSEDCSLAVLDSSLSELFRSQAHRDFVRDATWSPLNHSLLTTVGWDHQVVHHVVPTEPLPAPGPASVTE

Row | Compound | IC50
1 | Nc1ncnc2c1ccn2[C@@H]1C[C@H](CCc2ccc3cc4cn[nH]c4nc3c2)[C@@H](O)[C@H]1O [Compound 1-12, (1S,2R,3S,5R)-3-(2-(1H-pyrazolo[3,4-b]quinolin-7-yl)ethyl)-5-(4-amino-7H-pyrrolo-[2,3-d]pyrimidin-7-yl)cyclopentane-1,2-diol] | 1 to 100 nM
2 | Nc1ncnc2c1ccn2[C@@H]1C[C@H](CCc2ccc3cc4c(nc3c2)N[C@@H](C2CC2)C4)[C@@H](O)[C@H]1O [Compound 1-23, (1R,2S,3R,5S)-3-(4-amino-7H-pyrrolo[2,3-d]pyrimidin-7-yl)-5-(2-((R)-2-cyclopropyl-2,3-dihydro-1H-pyrrolo[2,3-b]quinolin-7-yl)ethyl)cyclopentane-1,2-diol] | < 1 nM
3 | CC1(C)CNc2nc3cc(CC[C@H]4O[C@@H](n5ccc6c(N)ncnc65)[C@H](O)[C@@H]4O)ccc3cc21 [Compound 3-9, (2R,3R,4S,5R)-2-(4-amino-7H-pyrrolo[2,3-d]pyrimidin-7-yl)-5-(2-(3,3-dimethyl-2,3-dihydro-1H-pyrrolo[2,3-b]quinolin-7-yl)ethyl)tetrahydrofuran-3,4-diol] | 1 to 100 nM
4 | Cn1[nH]c2nc3cc(CC[C@H]4C[C@@H](n5ccc6c(N)ncnc65)[C@H](O)[C@@H]4O)ccc3cc2c1=O [Compound 1-34, 7-(2-((1S,2R,3S,4R)-4-(4-amino-7H-pyrrolo[2,3-d]pyrimidin-7-yl)-2,3-dihydroxycyclopentyl)ethyl)-2-methyl-1,2-dihydro-3H-pyrazolo[3,4-b]quinolin-3-one] | > 100 nM
5 | Nc1ncnc2c1ccn2[C@@H]1C[C@H](CCc2ccc3cc4c(nc3c2)NC2(CC2)C4)[C@@H](O)[C@H]1O [Compound 1-31, (1R,2S,3R,5S)-3-(4-amino-7H-pyrrolo[2,3-d]pyrimidin-7-yl)-5-(2-(1′,3′-dihydrospiro[cyclopropane-1,2′-pyrrolo[2,3-b]quinolin]-7′-yl)ethyl)cyclopentane-1,2-diol] | < 1 nM

The remaining lines, values ahead:

Row | IC50 | Compound
6 | < 1 nM | Nc1ncnc2c1ccn2[C@@H]1C[C@H](CCc2ccc3c(c2)nc(N)n2ccnc32)[C@@H](O)[C@H]1O [Compound 1-9, (1R,2S,3R,5S)-3-(4-amino-7H-pyrrolo[2,3-d]pyrimidin-7-yl)-5-(2-(5-aminoimidazo-[1,2-c]quinazolin-8-yl)ethyl)cyclopentane-1,2-diol]
7 | < 1 nM | CC1(C)CNc2nc3cc(CC[C@H]4C[C@@H](n5ccc6c(N)ncnc65)[C@H](O)[C@@H]4O)ccc3cc21 [Compound 2-3, (1R,2S,3R,5S)-3-(4-amino-7H-pyrrolo[2,3-d]pyrimidin-7-yl)-5-(2-(3,3-dimethyl-2,3-dihydro-1H-pyrrolo[2,3-b]quinolin-7-yl)ethyl)cyclopentane-1,2-diol]
8 | < 1 nM | C[C@@H]1Cc2cc3ccc(CC[C@H]4C[C@@H](n5ccc6c(N)ncnc65)[C@H](O)[C@@H]4O)cc3nc2N1 [Compound 1-21, (1R,2S,3R,5S)-3-(4-amino-7H-pyrrolo[2,3-d]pyrimidin-7-yl)-5-(2-((R)-2-methyl-2,3-dihydro-1H-pyrrolo[2,3-b]quinolin-7-yl)ethyl)cyclopentane-1,2-diol]
9 | < 1 nM | Nc1ncnc2c1ccn2[C@@H]1C[C@H](CCc2ccc3cc4c(nc3c2)NOCC4)[C@@H](O)[C@H]1O [Compound 1-13, (1R,2S,3R,5S)-3-(4-amino-7H-pyrrolo[2,3-d]pyrimidin-7-yl)-5-(2-(3,4-dihydro-1H-[1,2]oxazino[3,4-b]quinolin-8-yl)ethyl)cyclopentane-1,2-diol]
10 | < 1 nM | C=CC[C@@H]1Cc2cc3ccc(CC[C@H]4C[C@@H](n5ccc6c(N)ncnc65)[C@H](O)[C@@H]4O)cc3nc2N1 [Compound 1-27, (1S,2R,3S,5R)-3-(2-((R)-2-allyl-2,3-dihydro-1H-pyrrolo[2,3-b]quinolin-7-yl)ethyl)-5-(4-amino-7H-pyrrolo[2,3-d]pyrimidin-7-yl)cyclopentane-1,2-diol]
